Assay results taken from US7049323B2, “Amidoheterocycles as modulators of the melanocortin-4 receptor” (Bristol-Myers Squibb Company, priority 2003, dated 2006).

Key:
[1] = target: T1, cloned human MC4R receptors (Homo sapiens, UniProt P32245); experiment: Melanocortin MC4R membrane binding assay ([125I]NDP-α-MSH competition); settings: [125I]NDP-α-MSH 0.1 nM, membranes of Hi5 insect cells or HEK-293 cells, 90 minutes at 37° C.
T1 construct: expressed in transfected cells; host or cells: Hi5 insect cells or HEK-293 cells (baculovirus/human MC4R receptor construct); membranes
Protocol: Melanocortin MC4R Binding Assay. […] A membrane binding assay was used to identify competitive ligands of [^125I]NDP-α-MSH binding to cloned human MC4R receptors expressed in Hi5 insect cells or HEK-293 cells transfected by a baculovirus/human MC4R receptor construct. The membrane binding buffer was composed of 25 mM HEPES, pH 7.4, 140 mM NaCl, 1.2 mM MgCl2, 2.5 mM CaCl2, and 0.1% BSA Membrane protein (0.5 μg) and [^125I]-NDP-α-MSH (to a final concentration of 0.1 nM) were added. Competing ligands or a buffer blank were added and incubated for 90 minutes at 37° C. After filtration, the cell membranes were evaluated in a Wallac Microbeta Trilux Scintillation and Luminescence Counter (Model 1450). Dose-response cureves were fitted by […] analyses and IC50 values are calculated using ExcelFit.

[2] = system: Rodents (NPY, ob/ob, agouti, fasted feeding models); settings: injected intracerebroventricularly (ICV); cited from earlier work
[3] = system: male volunteers / patients with psychogenic erectile dysfunction; settings: cited from earlier work
[4] = intramuscular, 0.005–0.03 mg/kg, three normal male volunteers

T1 sequence (P32245 whole entry): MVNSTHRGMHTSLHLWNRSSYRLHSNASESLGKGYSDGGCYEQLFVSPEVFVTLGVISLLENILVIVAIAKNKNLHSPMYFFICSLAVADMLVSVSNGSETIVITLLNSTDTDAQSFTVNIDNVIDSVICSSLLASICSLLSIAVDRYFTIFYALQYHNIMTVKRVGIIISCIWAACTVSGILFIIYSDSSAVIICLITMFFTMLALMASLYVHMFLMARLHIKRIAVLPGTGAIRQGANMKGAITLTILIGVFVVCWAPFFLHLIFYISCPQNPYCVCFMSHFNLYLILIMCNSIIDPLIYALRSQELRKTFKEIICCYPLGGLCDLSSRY

Molecule	IC50 [1] [nM]	food intake [2]	other results
CC(C)CC(=O)N(CC(C)C)[C@H]1CCN(C(=O)[C@@H](Cc2ccc(Cl)cc2)NC(=O)CCN(C)C)C1 [Example 66]	1000 to 10000		
CN(C)CCC(=O)N[C@H](Cc1ccc(Cl)cc1)C(=O)N1CC[C@H](N(C2CCCCC2)S(=O)(=O)c2ccccc2)C1 [Example 67]	< 250		
CC(C)C(=O)N(C1CCCCC1)[C@H]1CCN(C(=O)[C@@H](Cc2ccc(Cl)cc2)NC(=O)[C@H]2CCN2C)C1 [Example 68]	250 to 1000		
CC(C)C(=O)N(C1CCCCC1)[C@H]1CCN(C(=O)[C@@H](Cc2ccc(Cl)cc2)NC(=O)[C@@H]2CCN2C)C1 [Example 69]	< 250		
SHU-9119		reverses this effect and can induce hyperphagia	
melanotan-II [MT-II]		reduced food intake	penile erections [3, 4]: caused intermittent non-painful penile erections; period of erections after dosing [3, 4]: 1 to 5 h; erections ([3]; subcutaneous, 0.025 mg/kg and 0.1 mg/kg, 10 patients with psychogenic erectile dysfunction): caused transient erections; responders ([3]; subcutaneous, 0.025 mg/kg and 0.1 mg/kg, of 10 patients with psychogenic erectile dysfunction): 8; onset of erections ([3]; subcutaneous, 0.025 mg/kg and 0.1 mg/kg, patients with psychogenic erectile dysfunction): 50 to 180 min
